The target in this assay is T1, SARM1 (50-724) (Homo sapiens, UniProt Q6SZW1).
T1 sequence (Q6SZW1 50-724): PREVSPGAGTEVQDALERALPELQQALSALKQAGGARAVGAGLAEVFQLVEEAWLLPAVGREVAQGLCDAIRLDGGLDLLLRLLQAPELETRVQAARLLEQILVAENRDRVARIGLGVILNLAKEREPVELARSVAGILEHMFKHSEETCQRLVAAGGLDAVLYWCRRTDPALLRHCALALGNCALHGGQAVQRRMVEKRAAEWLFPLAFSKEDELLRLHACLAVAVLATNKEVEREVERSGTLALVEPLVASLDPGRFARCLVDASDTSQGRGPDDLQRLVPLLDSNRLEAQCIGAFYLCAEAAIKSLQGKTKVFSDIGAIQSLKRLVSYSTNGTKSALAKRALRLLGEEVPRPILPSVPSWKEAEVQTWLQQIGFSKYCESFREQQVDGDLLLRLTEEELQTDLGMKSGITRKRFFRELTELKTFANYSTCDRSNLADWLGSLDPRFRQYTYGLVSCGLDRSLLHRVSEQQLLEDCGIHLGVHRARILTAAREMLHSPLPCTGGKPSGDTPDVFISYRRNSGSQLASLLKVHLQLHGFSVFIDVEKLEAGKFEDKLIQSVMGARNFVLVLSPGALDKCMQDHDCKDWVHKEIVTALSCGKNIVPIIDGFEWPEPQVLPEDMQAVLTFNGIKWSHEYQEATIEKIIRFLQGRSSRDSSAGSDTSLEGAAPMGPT
Kind of assay: biochemical.

This note sets out measurements from patent publication US20250320184A1 (SIRONAX LTD., priority 2022, published 2025).

Each structure is given as a SMILES string.

Protocol: An enzymatic assay was performed in a 384-well plate using Dulbecco's phosphate-buffered saline (PBS) as the reaction buffer. […] The reaction was initiated by adding a mixture of 200 μM nicotinamide mononucleotide (NMN) as activator and 100 μM NAD^+ as substrate. After 1 h of incubation at room temperature, the reaction was terminated with 10 times volume of 70% acetonitrile, then centrifuged at 3800 rpm for 10 min.

As to `Cc1c(F)cccc1S(=O)(=O)Nc1ccc2c(c1)CCCC2` [Compound 14, 3-fluoro-2-methyl-N-(5,6,7,8-tetrahydronaphthalen-2-yl)benzenesulfonamide], the 50% inhibitory concentration (IC50) was 500 to 1000 nM. The result for `COc1nccc2ccc(NC(C)c3nc4c(s3)CN(C(=O)OC(C)(C)C)CC4)cc12` (racemic) [Compound 262, tert-butyl 2-(1-((1-methoxyisoquinolin-7-yl)amino)ethyl)-6,7-dihydrothiazolo[5,4-c]pyridine-5(4H)-carboxylate] reads 100 to 500 nM; that for `COc1ccc(NS(=O)(=O)c2cccc(Cl)c2Cl)cc1C(N)=O` [Compound 86, 5-((2,3-dichlorophenyl)sulfonamido)-2-methoxybenzamide], 100 to 500 nM; that for `O=S(=O)(Nc1ccc2ccccc2n1)c1cccc(Cl)c1Cl` [Compound 60, 2,3-dichloro-N-(quinolin-2-yl)benzenesulfonamide], above 1000 nM. The result for `CC1(C)CN(C(=O)c2cccnc2)c2cc(NS(=O)(=O)c3cccc(Cl)c3Cl)ccc21` [Compound 285, 2,3-dichloro-N-(3,3-dimethyl-1-nicotinoylindolin-6-yl)benzenesulfonamide] reads below 100 nM; that for `Cc1c2ccc(NC(C)c3nc(Cl)c(Cl)s3)cc2nn1C1CCOCC1` (racemic) [Compound 327, N-(1-(4,5-dichlorothiazol-2-yl)ethyl)-3-methyl-2-(tetrahydro-2H-pyran-4-yl)-2H-indazol-6-amine], below 100 nM. The same measure for `CC(Nc1ccc2c(C(F)(F)F)n(CC(N)=O)nc2c1)c1nc(Cl)c(Cl)s1` (single isomer, unassigned) [Compound 367]: below 100 nM; for `Cc1n[nH]c(=O)c2cc(NC(C)c3cncc(Cl)c3Cl)ccc12` (racemic) [Compound 275, 7-((1-(4,5-dichloropyridin-3-yl)ethyl)amino)-4-methylphthalazin-1(2H)-one]: below 100 nM; for `Cc1c2c(F)cc(NC(C)c3nc(Cl)c(Cl)s3)cc2nn1CC(N)=O` (single isomer, unassigned) [Compound 390]: above 1000 nM.

Take `O=S(=O)(Nc1ccc2sc(Cl)nc2c1)c1cccc(Cl)c1Cl` [Compound 33, 2,3-dichloro-N-(2-chlorobenzo[d]thiazol-5-yl)benzenesulfonamide]: the IC50 was in the range of 100 to 500 nM. The result for `O=C1CCCc2ccc(NS(=O)(=O)c3cccc(Cl)c3Cl)cc21` [Compound 55, 2,3-dichloro-N-(8-oxo-5,6,7,8-tetrahydronaphthalen-2-yl)benzenesulfonamide] reads below 100 nM; that for `COc1ncc(C(C)Nc2ccc3cc[nH]c(=O)c3c2)cc1Cl` (racemic) [Example 117, 7-((1-(5-chloro-6-methoxypyridin-3-yl)ethyl)amino)isoquinolin-1(2H)-one], 100 to 500 nM; that for `CC1CNC(=O)c2cc(NS(=O)(=O)c3cccc(Cl)c3Cl)ccc21` (stereo not drawn) [Compound 189], below 100 nM. `Cc1c(Cl)c(C(C)Nc2ccc3cc[nH]c(=O)c3c2)nn1CC(F)(F)F` (racemic) [Compound 257, 7-((1-(4-chloro-5-methyl-1-(2,2,2-trifluoroethyl)-1H-pyrazol-3-yl)ethyl)amino)isoquinolin-1(2H)-one] came in with an IC50 below 100 nM. The same measure for `CC(Nc1ccc2cc[nH]c(=O)c2c1)c1cc(Cl)cc(Cl)c1Cl` (racemic) [Example 138, 7-((1-(2,3,5-trichlorophenyl)ethyl)amino)isoquinolin-1(2H)-one]: below 100 nM; for `Cc1c2ccc(NC(C)c3nc(Cl)c(Cl)s3)cc2nn1CC(N)=O` (single isomer, unassigned) [Compound 312]: below 100 nM; for `Cc1n[nH]c2cc(NC(C)c3nc(Cl)c(Cl)s3)ccc12` (racemic) [Compound 261, N-(1-(4,5-dichlorothiazol-2-yl)ethyl)-3-methyl-1H-indazol-6-amine]: below 100 nM. In the case of `CC(Nc1cc(F)c2ncn(-c3ccn[nH]3)c(=O)c2c1)c1nc(Cl)c(Cl)s1` (single isomer, unassigned) [Example 356A], the IC50 was above 1000 nM. The result for `CC(Nc1ccc2nccc(=O)n2c1)c1cccc(Cl)c1Cl` (racemic) [Example 148, 7-((1-(2,3-dichlorophenyl)ethyl)amino)-4H-pyrido[1,2-a]pyrimidin-4-one] reads above 1000 nM; that for `CC(=O)NC1CCCc2ccc(NS(=O)(=O)c3cccc(Cl)c3Cl)cc21` (racemic) [Compound 283, N-(7-((2,3-dichlorophenyl)sulfonamido)-1,2,3,4-tetrahydronaphthalen-1-yl)acetamide], below 100 nM; that for `O=C1NCCc2ccc(NS(=O)(=O)c3cc(F)cc(F)c3F)cc21` [Compound 51, 2,3,5-trifluoro-N-(1-oxo-3,4-dihydro-2H-isoquinolin-7-yl)benzenesulfonamide], above 1000 nM.

Molecule `CC(Nc1ccc2cc[nH]c(=O)c2c1)c1cc(F)cc(Cl)c1Cl` (racemic) [Example 136, 7-((1-(2,3-dichloro-5-fluorophenyl)ethyl)amino)isoquinolin-1(2H)-one] had an IC50 below 100 nM. Molecule `Cc1n[nH]c2cc(NS(=O)(=O)c3c(Cl)ccc(Cl)c3Cl)ccc12` [Compound 81, 2,3,6-trichloro-N-(3-methyl-1H-indazol-6-yl)benzenesulfonamide] came in with a half-inhibitory concentration (IC50) below 100 nM. The result for `CC(Nc1ccc2c(c1)C(=O)NCC2)c1cccc(Cl)c1Cl` (racemic) [Example 100, 7-((1-(2,3-dichlorophenyl)ethyl)amino)-3,4-dihydroisoquinolin-1(2H)-one] reads 100 to 500 nM; that for `Cc1n[nH]c(=O)c2cc(NC(CC(O)CCO)c3nc(Cl)c(Cl)s3)ccc12` (mixture of isomers) [Example 293, 7-((1-(4,5-dichlorothiazol-2-yl)-3,5-dihydroxypentyl)amino)-4-methylphthalazin-1(2H)-one], 100 to 500 nM. The same measure for `Cc1n[nH]c(=O)c2cc(NC(C)c3nc(Cl)c(Cl)s3)ccc12` (single isomer, unassigned) [Example 239B]: above 1000 nM; for `O=S(=O)(Nc1ccc2c(c1)C(O)CCC2)c1cccc(Cl)c1Cl` (racemic) [Compound 56, 2,3-dichloro-N-(8-hydroxy-5,6,7,8-tetrahydronaphthalen-2-yl)benzenesulfonamide]: below 100 nM. The molecule `CC[C@H](C(N)=O)c1ccc(N[C@H](C)c2nc(Cl)c(Cl)s2)cc1` (single isomer, unassigned) [Compound 302A] yielded an IC50 above 1000 nM. The result for `CC(Nc1ccc2ccccc2n1)c1cccc(Cl)c1Cl` (racemic) [Example 134, N-(1-(2,3-dichlorophenyl)ethyl)quinolin-2-amine] reads above 1000 nM; that for `Cc1c(F)cccc1S(=O)(=O)Nc1ccc2cc[nH]c(=O)c2c1` [Compound 15, 3-fluoro-2-methyl-N-(1-oxo-1,2-dihydroisoquinolin-7-yl)benzenesulfonamide], below 100 nM.

Regarding `CC(Nc1cc(F)c2ncn(-c3ncc[nH]3)c(=O)c2c1)c1nc(Cl)c(Cl)s1` (racemic) [Example 375, 6-((1-(4,5-dichlorothiazol-2-yl)ethyl)amino)-8-fluoro-3-(1H-imidazol-2-yl)quinazolin-4(3H)-one], the IC50 was below 100 nM. Take `CC(Nc1ccc2nc[nH]c(=O)c2c1)c1c(Cl)ccc(Cl)c1Cl` (racemic) [Example 195, 6-((1-(2,3,6-trichlorophenyl)ethyl)amino)quinazolin-4(3H)-one]: the IC50 is below 100 nM. The same measure for `CCn1nc(C(C)Nc2ccc3cc[nH]c(=O)c3c2)c(Cl)c1C` (racemic) [Compound 247, 7-((1-(4-chloro-1-ethyl-5-methyl-1H-pyrazol-3-yl)ethyl)amino)isoquinolin-1(2H)-one]: below 100 nM. `Cc1ccc(C)c(S(=O)(=O)Nc2ccc3c(c2)C(=O)NCC3)c1` [Example 2A, 2,5-dimethyl-N-(1-oxo-1,2,3,4-tetrahydroisoquinolin-7-yl)benzenesulfonamide] came in with an IC50 above 1000 nM. The result for `CC1(C)C(=O)N(Cc2ccncc2)c2cc(NS(=O)(=O)c3cccc(Cl)c3Cl)ccc21` [Compound 309, 2,3-dichloro-N-(3,3-dimethyl-2-oxo-1-(pyridin-4-ylmethyl)indolin-6-yl)benzenesulfonamide] reads below 100 nM; that for `Cc1n[nH]c(=O)c2nc(NC(C)c3nn(C)c(Cl)c3Cl)ccc12` (racemic) [Compound 311, 2-((1-(4,5-dichloro-1-methyl-1H-pyrazol-3-yl)ethyl)amino)-5-methylpyrido[2,3-d]pyridazin-8(7H)-one], below 100 nM. Molecule `CC(Nc1ccc2cc[nH]c(=O)c2c1)c1ccc(F)c(Cl)c1Cl` (racemic) [Example 203, 7-[1-(2,3-dichloro-4-fluoro-phenyl)ethylamino]-2H-isoquinolin-1-one] gave an IC50 below 100 nM. As to `Cc1c2c(F)cc(NC(C)c3c(F)ccc(Cl)c3Cl)cc2nn1CC(N)=O` (racemic) [Compound 364, 2-(6-((1-(2,3-dichloro-6-fluorophenyl)ethyl)amino)-4-fluoro-3-methyl-2H-indazol-2-yl)acetamide], the IC50 is below 100 nM. The same measure for `O=C1NCCc2cc(Cl)c(NS(=O)(=O)c3cccc(Cl)c3Cl)cc21` [Compound 47, 2,3-dichloro-N-(6-chloro-1-oxo-1,2,3,4-tetrahydroisoquinolin-7-yl)benzenesulfonamide]: above 1000 nM.
